Data reported in BindingDB's records for patent US9290451 (Hoffmann-La Roche Inc, 2016).

Key:
Cannabinoid receptor 2 = Cannabinoid receptor 2 (Homo sapiens, UniProt P34972); test: cAMP Assay; settings: 37 °C
Experimental: (§1) CHO cells expressing human CB1 or CB2 receptors are seeded 17-24 hours prior to the experiment 50.000 cells per well in a black 96 well plate with flat clear bottom (Corning Costar #3904) in DMEM (Invitrogen No. 31331), 1×HT supplement, with 10% fetal calf serum and incubated at 5% CO2 and 37° C. in a humidified incubator. The growth medium was exchanged with Krebs Ringer Bicarbonate buffer with 1 mM IBMX and incubated at 30° C. for 30 min Compounds were added to a final assay volume of 100 ul and incubated for 30 min at 30° C. Using the cAMP-Nano-TRF detection kit the assay (Roche Diagnostics) was stopped by the addition of 50 ul lysis reagent (Tris, NaCl, 1.5% Triton X100, 2.5% NP40, 10% NaN3) and 50 ul detection solutions (20 uM mAb Alexa700-cAMP 1:1, and 48 uM Ruthenium-2-AHA-cAMP) and shaken for 2 h at room temperature. The time-resolved energy transfer is measured by a TRF reader (Evotec Technologies GmbH), equipped with a ND:YAG laser as excitation source. The plate is measured twice with the excitation at 355 nm and at the emission with a delay of 100 ns and a gate of 100 ns, total exposure time 10 s at 730 (bandwidth 30 nm) or 645 nm (bandwidth 75 nm), respectively. The FRET signal is calculated.

Cannabinoid receptor 1 = Cannabinoid receptor 1 (Homo sapiens, UniProt P21554); test: cAMP Assay; settings: 37 °C
Experimental: as §1

Sequence of Cannabinoid receptor 2 (P34972 whole entry): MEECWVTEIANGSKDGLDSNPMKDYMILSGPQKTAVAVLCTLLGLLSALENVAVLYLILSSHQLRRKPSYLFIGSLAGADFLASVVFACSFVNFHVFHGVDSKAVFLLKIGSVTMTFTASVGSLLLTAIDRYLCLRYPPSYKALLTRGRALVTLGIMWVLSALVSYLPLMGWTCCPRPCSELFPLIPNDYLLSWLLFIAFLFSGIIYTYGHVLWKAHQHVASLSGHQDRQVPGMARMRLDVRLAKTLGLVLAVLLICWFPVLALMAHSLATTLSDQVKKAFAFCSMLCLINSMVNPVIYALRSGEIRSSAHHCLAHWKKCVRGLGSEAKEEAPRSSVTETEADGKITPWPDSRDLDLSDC
Sequence of Cannabinoid receptor 1 (P21554 whole entry): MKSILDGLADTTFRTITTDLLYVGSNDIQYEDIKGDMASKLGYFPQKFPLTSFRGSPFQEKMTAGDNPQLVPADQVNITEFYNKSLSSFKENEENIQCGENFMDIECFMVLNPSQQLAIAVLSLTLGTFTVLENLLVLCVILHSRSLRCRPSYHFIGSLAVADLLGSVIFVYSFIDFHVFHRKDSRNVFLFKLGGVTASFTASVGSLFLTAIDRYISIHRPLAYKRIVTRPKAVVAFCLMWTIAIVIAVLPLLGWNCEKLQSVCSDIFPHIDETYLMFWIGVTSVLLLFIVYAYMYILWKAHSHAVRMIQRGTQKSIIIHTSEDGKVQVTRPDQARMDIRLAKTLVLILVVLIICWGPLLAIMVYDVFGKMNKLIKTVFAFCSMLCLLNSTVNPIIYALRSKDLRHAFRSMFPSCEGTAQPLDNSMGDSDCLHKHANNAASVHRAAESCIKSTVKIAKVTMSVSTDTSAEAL

Structure (SMILES)	EC50 (Cannabinoid receptor 2) [nM]	EC50 (Cannabinoid receptor 1) [nM]
O=C(c1ccc(C2CCCC2)c(OCC2CC2)n1)N1CCS(=O)(=O)CC1 [US9290451, 39]	303	> 10000
O=C(c1ccc(C2CC2)c(-c2cccc(Cl)c2)n1)N1CCS(=O)(=O)CC1 [US9290451, 48]	477	> 10000
CC(C)(CO)NC(=O)c1ccc(NC2CC2)c(OCC2CC2)n1 [US9290451, 159]	780	> 10000
Cc1cnc(C(C)(C)NC(=O)c2ccc(N3CC(F)(F)C3)c(OCC3CC3)n2)s1 [US9290451, 353]	4.9	> 10000
